In patent US20240254115A1 (ACONDICIONAMIENTO TARRASENSE, priority 2021, published 2024) one finds Ki data, which are given here for 22 molecules.

The target of one test is T1, human σ2/TMEM97 receptor (Homo sapiens, UniProt Q5BJF2).
T1 construct: expressed in transfected cells; host or cells: HEK-293
The test is described as follows: Binding assay to human σ2/TMEM97 receptor. The following applies: transfected HEK-293 membranes, 10 nM [3H]-DTG, 25° C. 120 minutes; + may also stand for 1-50% inhibition at 1 or 10 μM; read-out: Binding σ-2 Ki. An outline of the steps:
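Membranes from transfected HEK-293 cells (15 µg) were incubated with 10 nM [3H]-DTG in 50 mM Tris-HCl pH 8.0 for 120 min at 25 °C, with 10 µM haloperidol defining non-specific binding. Filtration and scintillation counting followed. Compounds tested as % inhibition at 1 or 10 µM, or at five concentrations for Ki.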

In the next test the target is T2, human σ1 receptor (Homo sapiens, UniProt Q99720).
T2 construct: expressed in transfected cells; host or cells: HEK-293
The test is described as follows: Human σ1 receptor radioligand assay. The note with it: transfected HEK-293 membranes, 5 nM [3H](+)-pentazocine, 37° C. 120 minutes; + may also stand for 1-50% inhibition at 1 or 10 μM; read-out: Binding σ-1 Ki. A digest of the protocol:
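Membranes (7 μg) were incubated with 5 nM [3H](+)-pentazocine in 50 mM Tris-HCl pH 8 for 120 min at 37° C. Non-specific binding was defined with 10 μM haloperidol. Values are % inhibition at 1 or 10 μM or Ki from five concentrations, read by filtration and scintillation counting.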

T2 sequence (Q99720 whole entry): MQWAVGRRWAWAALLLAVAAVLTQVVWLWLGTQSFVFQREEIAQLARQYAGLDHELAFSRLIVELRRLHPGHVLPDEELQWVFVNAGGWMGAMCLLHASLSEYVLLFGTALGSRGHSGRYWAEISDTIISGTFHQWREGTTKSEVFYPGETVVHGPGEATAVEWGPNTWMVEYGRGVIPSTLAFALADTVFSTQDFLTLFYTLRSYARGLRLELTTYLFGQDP
T1 sequence (Q5BJF2 whole entry): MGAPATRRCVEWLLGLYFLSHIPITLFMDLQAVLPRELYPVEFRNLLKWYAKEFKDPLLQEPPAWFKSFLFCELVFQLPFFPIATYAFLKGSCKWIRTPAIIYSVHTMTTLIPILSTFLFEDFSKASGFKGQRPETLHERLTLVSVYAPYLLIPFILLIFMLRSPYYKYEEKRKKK

As to `CC(C)(C)CCN1CCC2(CC1)CCN(S(=O)(=O)c1ccc(-c3ccncc3)nc1)C2` [Example 114, 2-([2,4′-Bipyridin]-5-ylsulfonyl)-8-(3,3-dimethylbutyl)-2,8-diazaspiro[4.5]decane], the Ki at human σ2/TMEM97 receptor and at human σ1 receptor was < 100 nM in each case.
On to `CC(C)(C)CCN1CCCC2(CCN(S(=O)(=O)c3ccc(-c4ccncc4)nc3)CC2)C1` [Example 115, 9-([2,4′-Bipyridin]-5-ylsulfonyl)-2-(3,3-dimethylbutyl)-2,9-diazaspiro[5.5]undecane], for which the Ki on human σ2/TMEM97 receptor and at human σ1 receptor was < 100 nM in each case.
In the case of `CC(C)(C)CCN1CCC2(CCCN(S(=O)(=O)c3ccc(C4CCOCC4)nc3)C2)CC1` [Example 116, 9-(3,3-Dimethylbutyl)-2-((6-(tetrahydro-2H-pyran-4-yl)pyridin-3-yl)sulfonyl)-2,9-diazaspiro[5.5]undecane], the Ki at human σ2/TMEM97 receptor and at human σ1 receptor was < 100 nM in each case.
In the case of `CC(C)(C)CCN1CCC2(CC1)CCN(S(=O)(=O)c1ccc(C3CCOCC3)nc1)CC2` [Example 117, 3-(3,3-Dimethylbutyl)-9-((6-(tetrahydro-2H-pyran-4-yl)pyridin-3-yl)sulfonyl)-3,9-diazaspiro[5.5]undecane], the Ki was < 100 nM on human σ2/TMEM97 receptor and 100 to 500 nM on human σ1 receptor.
The matching figures for `CC(C)(C)CCN1CCC2(CCCN(S(=O)(=O)c3ccc(N4CCS(=O)(=O)CC4)nc3)C2)CC1` [Example 118, 4-(5-((9-(3,3-Dimethylbutyl)-2,9-diazaspiro[5.5]undecan-2-yl)sulfonyl)pyridin-2-yl)thiomorpholine 1,1-dioxide]: < 100 nM and 100 to 500 nM.
In the case of `CN(Cc1ccc(F)cc1)[C@H]1CC[C@H](NS(=O)(=O)c2ccc(N3CCOCC3)cn2)CC1` [Example 119, N-((1r,4r)-4-((4-Fluoro-benzyl)(methyl)amino)cyclo-hexyl)-5-morpholinopyridine-2-sulfonamide], the Ki on human σ2/TMEM97 receptor is < 100 nM; at human σ1 receptor, > 1000 nM.
The matching figures for `CC(C)(C)CCN1CCC2(CCCN(S(=O)(=O)c3ccc(N4CCOCC4=O)nc3)C2)CC1` [Example 120, 4-(5-((9-(3,3-Dimethylbutyl)-2,9-diazaspiro[5.5]undecan-2-yl)sulfonyl)pyridin-2-yl)morpholin-3-one]: < 100 nM and 100 to 500 nM.
The matching figures for `CC(C)(C)CCN1CCC2(CCCN(S(=O)(=O)c3ccc(N4CCCC4=O)nc3)C2)CC1` [Example 121, 1-(5-((9-(3,3-Dimethylbutyl)-2,9-diazaspiro[5.5]undecan-2-yl)sulfonyl)pyridin-2-yl)pyrrolidin-2-one]: < 100 nM and < 100 nM.
As for `CC(C)(C)CCN1CCC2(CCCN(S(=O)(=O)c3ccc(N4CCCCC4=O)nc3)C2)CC1` [Example 122, 1-(5-((9-(3,3-Dimethylbutyl)-2,9-diazaspiro[5.5]undecan-2-yl)sulfonyl)pyridin-2-yl)piperidin-2-one], the Ki on human σ2/TMEM97 receptor is < 100 nM; at human σ1 receptor, 100 to 500 nM.
With `CC(C)(C)CCN1CCC2(CCCN(S(=O)(=O)c3ccc(N4CCOC4=O)nc3)C2)CC1` [Example 123, 3-(5-((9-(3,3-Dimethylbutyl)-2,9-diazaspiro[5.5]undecan-2-yl)sulfonyl)pyridin-2-yl)oxazolidin-2-one], the Ki on human σ2/TMEM97 receptor was < 100 nM; at human σ1 receptor, 100 to 500 nM.
On to `CN(CC(C)(C)C)C1CCN(S(=O)(=O)c2ccc(N3CCOC3=O)nc2)CC1` [Example 124, 3-(5-((4-(Methyl(neopentyl)amino)pi-peridin-1-yl)sulfonyl)pyridin-2-yl)oxazolidin-2-one], for which the Ki on human σ2/TMEM97 receptor is > 1000 nM; on human σ1 receptor it was 100 to 500 nM.
The like results for `N#Cc1ccc(CN2CCC3(CCCN(S(=O)(=O)c4ccc(N5CCOC5=O)nc4)C3)CC2)c(F)c1` [Example 125, 3-Fluoro-4-((2-((6-(2-oxooxazolidin-3-yl)pyridin-3-yl)sulfonyl)-2,9-diazaspiro[5.5]undecan-9-yl)methyl)benzonitrile] were, in that order, < 100 nM and < 100 nM.
In the case of `O=C1CCCN1c1ccc(S(=O)(=O)N2CCCC3(CCN(CC4CCOCC4)CC3)C2)cn1` [Example 126, 1-(5-((9-((Tetrahydro-2H-pyran-4-yl)methyl)-2,9-diazaspiro[5.5]undecan-2-yl)sulfonyl)pyridin-2-yl)pyrrolidin-2-one], the Ki at human σ2/TMEM97 receptor and on human σ1 receptor was < 100 nM throughout.
`O=C1OCCN1c1ccc(S(=O)(=O)N2CCCC3(CCN(CC4CCOCC4)CC3)C2)nc1` [Example 127, 3-(6-((9-((Tetrahydro-2H-pyran-4-yl)methyl)-2,9-diazaspiro[5.5]undecan-2-yl)sulfonyl)pyridin-3-yl)oxazolidin-2-one]: the Ki on human σ2/TMEM97 receptor and at human σ1 receptor was < 100 nM throughout.
Take `O=C1OCCN1c1ccc(S(=O)(=O)N2CCC3(CCN(CC4CCOCC4)CC3)CC2)cn1` [Example 128, 3-(5-((9-((Tetrahydro-2H-pyran-4-yl)methyl)-3,9-diazaspiro[5.5]undecan-3-yl)sulfonyl)pyridin-2-yl)oxazolidin-2-one]: the Ki is < 100 nM on human σ2/TMEM97 receptor and 500 to 1000 nM at human σ1 receptor.
The matching figures for `CN(CC1CCOCC1)C1CCN(S(=O)(=O)c2ccc(N3CCOC3=O)nc2)CC1` [Example 129, 3-(5-((4-(Methyl((tetrahydro-2H-pyran-4-yl)methyl)amino)piperidin-1-yl)sulfonyl)pyridin-2-yl)oxazolidin-2-one]: 100 to 500 nM and 100 to 500 nM.
With `O=S(=O)(c1ccc(N2CCC(F)(F)CC2)nc1)N1CCCC2(CCN(Cc3ccccc3)CC2)C1` [Example 130, 9-Benzyl-2-((6-(4,4-difluoropiperidin-1-yl)pyridin-3-yl)sulfonyl)-2,9-diazaspiro[5.5]undecane], the Ki on human σ2/TMEM97 receptor and at human σ1 receptor was < 100 nM each time.
For `CC(C)(C)CCN1CCC2(CC1)CCN(S(=O)(=O)c1ccc(N3CCOCC3=O)nc1)CC2` [Example 131, 4-(5-((9-(3,3-Dimethylbutyl)-3,9-diazaspiro[5.5]undecan-3-yl)sulfonyl)pyridin-2-yl)morpholin-3-one], the Ki at human σ2/TMEM97 receptor was < 100 nM; at human σ1 receptor, 100 to 500 nM.
For `CC(C)(C)CCN1CCC2(CC1)CCN(S(=O)(=O)c1ccc(N3CCCCC3=O)nc1)CC2` [Example 132, 1-(5-((9-(3,3-Dimethylbutyl)-3,9-diazaspiro[5.5]undecan-3-yl)sulfonyl)pyridin-2-yl)piperidin-2-one], the Ki on human σ2/TMEM97 receptor is < 100 nM; on human σ1 receptor it was 100 to 500 nM.
`CC(C)(C)CCN1CCC2(CC1)CCN(S(=O)(=O)c1ccc(N3CCCC3=O)nc1)CC2` [Example 133, 1-(5-((9-(3,3-Dimethylbutyl)-3,9-diazaspiro[5.5]undecan-3-yl)sulfonyl)pyridin-2-yl)pyrrolidin-2-one]: the inhibition constant Ki at human σ2/TMEM97 receptor was < 100 nM; on human σ1 receptor, 100 to 500 nM.
Take `CC(C)(C)CCN1CCC2(CC1)CCN(S(=O)(=O)c1ccc(N3CCOC3=O)nc1)CC2` [Example 134, 3-(5-((9-(3,3-Dimethylbutyl)-3,9-diazaspiro[5.5]undecan-3-yl)sulfonyl)pyridin-2-yl)oxazolidin-2-one]: the Ki at human σ2/TMEM97 receptor was < 100 nM; on human σ1 receptor, 100 to 500 nM.
With `O=C1OCCN1c1ccc(S(=O)(=O)N2CCC3(CCN(Cc4ccccc4)CC3)CC2)cn1` [Example 135, 3-(5-((9-Benzyl-3,9-diazaspiro[5.5]undecan-3-yl)sulfonyl)pyridin-2-yl)oxazolidin-2-one], the Ki at human σ2/TMEM97 receptor and at human σ1 receptor was < 100 nM throughout.
